Data reported in US20250197372A1 (priority 2020, published 2025).

What follows are molecules tested against T1, recombinant alpha-glucosidase I (human full-length glucosidase I, Glu 1) (Homo sapiens, UniProt Q13724) (assay: Alpha-glucosidase I assay (Amplex Red glucose detection, synthetic trisaccharide substrate)). Details: Glucosidase 1; read-out: Glu 1 IC50.
T1 construct: 6-His (C); made in house; host or cells: HEK-293T cells transduced with BacMam virus (virus raised in Sf9)
T1 sequence (Q13724 1-837): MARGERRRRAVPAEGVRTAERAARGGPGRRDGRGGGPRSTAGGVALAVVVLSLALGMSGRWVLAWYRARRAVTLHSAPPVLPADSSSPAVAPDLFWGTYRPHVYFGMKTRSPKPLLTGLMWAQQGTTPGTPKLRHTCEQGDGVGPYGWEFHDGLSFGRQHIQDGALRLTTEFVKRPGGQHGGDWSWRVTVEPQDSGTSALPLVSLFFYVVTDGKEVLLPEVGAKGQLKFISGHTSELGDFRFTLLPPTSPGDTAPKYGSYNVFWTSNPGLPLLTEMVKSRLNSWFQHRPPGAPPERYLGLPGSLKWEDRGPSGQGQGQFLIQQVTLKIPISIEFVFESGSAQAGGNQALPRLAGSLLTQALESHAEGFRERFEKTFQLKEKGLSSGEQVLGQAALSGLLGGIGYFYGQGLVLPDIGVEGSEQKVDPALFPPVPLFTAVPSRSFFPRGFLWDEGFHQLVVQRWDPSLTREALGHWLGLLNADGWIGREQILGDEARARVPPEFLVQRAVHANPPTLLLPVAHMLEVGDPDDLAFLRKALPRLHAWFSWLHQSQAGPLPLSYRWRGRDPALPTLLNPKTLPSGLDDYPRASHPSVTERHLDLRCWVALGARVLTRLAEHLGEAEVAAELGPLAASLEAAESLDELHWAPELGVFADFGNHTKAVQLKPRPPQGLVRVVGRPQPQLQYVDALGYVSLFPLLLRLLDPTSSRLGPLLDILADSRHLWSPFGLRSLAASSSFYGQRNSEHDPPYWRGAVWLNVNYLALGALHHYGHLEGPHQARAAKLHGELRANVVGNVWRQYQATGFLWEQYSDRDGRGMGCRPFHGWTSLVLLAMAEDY
Type: biochemical
In short: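 Human full-length glucosidase I, His-tagged, […] and Ni-purified. Enzyme preincubated with compound dilutions 60 min at 37° C, then synthetic trisaccharide substrate 90 min at 37° C; stopped with 1.5M Tris pH 8.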
N#Cc1cc(Br)cc(NCc2cccc(CN3C[C@H](O)[C@@H](O)[C@H](O)[C@H]3CO)c2)c1 [Compound 1023, 3-bromo-5-{[(3-{[(2R,3R,4R,5S)-3,4,5-trihydroxy-2-(hydroxymethyl)piperidin-1-yl]methyl}phenyl)methyl]amino}benzonitrile] gave an IC50 of 15 nM. O=[N+]([O-])c1cc(N2CC3CC2CO3)ccc1NCc1ccc(CN2C[C@@H](O)[C@H](O)[C@@H](O)[C@@H]2CO)cc1 (stereo in doubt) [Compound 1015, (2S,3S,4S,5R)-2-(hydroxymethyl)-1-[(4-{[(2-nitro-4-{2-oxa-5-azabicyclo[2.2.1]heptan-5-yl}phenyl)amino]methyl}phenyl)methyl]piperidine-3,4,5-triol] gave an IC50 of 9 nM. In the case of COCCCCCN(CCCNc1ccc(N=[N+]=[N-])cc1[N+](=O)[O-])CCCN1C[C@H](O)[C@@H](O)[C@H](O)[C@H]1CO [Compound 1221, (2R,3R,4R,5S)-1-[3-({3-[(4-azido-2-nitrophenyl)amino]propyl}(5-methoxypentyl)amino)propyl]-2-(hydroxymethyl)piperidine-3,4,5-triol], the IC50 is reported as 2230 nM. OC[C@@H]1[C@@H](O)[C@H](O)[C@@H](O)CN1CCCCCCNc1ccc(-c2ncccn2)cc1C(F)(F)F [Compound 1258, (2R,3R,4R,5S)-2-(hydroxymethyl)-1-(6-{[4-(pyrimidin-2-yl)-2-(trifluoromethyl)phenyl]amino}hexyl)piperidine-3,4,5-triol] showed an IC50 of 32 nM. COc1cc(-c2ncccn2)ccc1NCCCCCCN1C[C@H](O)[C@@H](O)[C@H](O)[C@H]1CO [Compound 1231, (2R,3R,4R,5S)-2-(hydroxymethyl)-1-(6-{[2-methoxy-4-(pyrimidin-2-yl)phenyl]amino}hexyl)piperidine-3,4,5-triol] gave an IC50 of 187 nM. In the case of OC[C@@H]1[C@@H](O)[C@H](O)[C@@H](O)CN1CCCCCCCCC1CNCCO1 (stereo partly drawn) [Compound 1311, (2R,3R,4R,5S)-2-(hydroxymethyl)-1-[8-(morpholin-2-yl)octyl]piperidine-3,4,5-triol], the IC50 is reported as 1760 nM. In the case of N#Cc1cc(Br)cc(NCc2ccc(CN3C[C@H](O)[C@@H](O)[C@H](O)[C@H]3CO)cc2)c1 [Compound 1026, 3-bromo-5-{[(4-{[(2R,3R,4R,5S)-3,4,5-trihydroxy-2-(hydroxymethyl)piperidin-1-yl]methyl}phenyl)methyl]amino}benzonitrile], the IC50 is reported as 7 nM. With CN(Cc1cccc(CN2C[C@H](O)[C@@H](O)[C@H](O)[C@H]2CO)c1)c1ccc(CN2CCCO2)cc1[N+](=O)[O-] [Compound 1020] the IC50 was 118 nM. Cc1cc(NCc2cccc(CN3C[C@H](O)[C@@H](O)[C@H](O)[C@H]3CO)n2)cc(-c2ccco2)c1 [Compound 1334, (2R,3R,4R,5S)-1-{[6-({[3-(furan-2-yl)-5-methylphenyl]amino}methyl)pyridin-2-yl]methyl}-2-(hydroxymethyl)piperidine-3,4,5-triol] gave an IC50 of 1080 nM. COc1ccc(CCCCCN2C[C@H](O)[C@@H](O)[C@H](O)[C@H]2CO)cc1 [Compound 1310, (2R,3R,4R,5S)-2-(hydroxymethyl)-1-[5-(4-methoxyphenyl)pentyl]piperidine-3,4,5-triol] showed an IC50 of 678 nM. Molecule Cc1cc(NCc2cccc(CN3C[C@H](O)[C@@H](O)[C@H](O)[C@H]3CO)c2)cc(N2CCOCC2)c1 [Compound 1031, (2R,3R,4R,5S)-2-(hydroxymethyl)-1-{[3-({[3-methyl-5-(morpholin-4-yl)phenyl]amino}methyl)phenyl]methyl}piperidine-3,4,5-triol] has an IC50 of 93 nM. CN(C)Cc1ccc(NCCCCCCN2C[C@H](O)[C@@H](O)[C@H](O)[C@H]2CO)c(C#N)c1 [Compound 1257, 5-[(dimethylamino)methyl]-2-({6-[(2R,3R,4R,5S)-3,4,5-trihydroxy-2-(hydroxymethyl)piperidin-1-yl]hexyl}amino)benzonitrile] gave an IC50 of 115 nM. COc1ccc(-c2ccc(CN3C[C@H](O)[C@@H](O)[C@H](O)[C@H]3CO)cc2)cc1 [Compound 1306, (2R,3R,4R,5S)-2-(hydroxymethyl)-1-({4′-methoxy-[1,1′-biphenyl]-4-yl}methyl)piperidine-3,4,5-triol] was tested, and the IC50 was 745 nM. Nc1ccc(NCCCCCCCCN2C[C@H](O)[C@@H](O)[C@H](O)[C@H]2CO)c([N+](=O)[O-])c1Cl [Compound 1277, (2R,3R,4R,5S)-1-{8-[(4-amino-3-chloro-2-nitrophenyl)amino]octyl} 2-(hydroxymethyl)piperidine-3,4,5-triol] showed an IC50 of 166 nM. For OC[C@@H]1[C@@H](O)[C@H](O)[C@@H](O)CN1CCCCCCNc1ccc(-c2ncccn2)cc1F [Compound 1229, (2R,3R,4R,5S)-1-(6-{[2-fluoro-4-(pyrimidin-2-yl)phenyl]amino}hexyl)-2-(hydroxymethyl)piperidine-3,4,5-triol], the IC50 was 94 nM. Cc1cc(NCc2ccc(CN3C[C@H](O)[C@@H](O)[C@H](O)[C@H]3CO)cc2)cc(-c2ncco2)c1 [Compound 1315, (2R,3R,4R,5S)-2-(hydroxymethyl)-1-{[4-({[3-methyl-5-(1,3-oxazol-2-yl)phenyl]amino}methyl)phenyl]methyl}piperidine-3,4,5-triol] was tested, and the IC50 was 40 nM. With OC[C@@H]1[C@@H](O)[C@H](O)[C@@H](O)CN1CCCCCCNc1cc(Cl)cc(-c2ncco2)c1 [Compound 1211, (2R,3R,4R,5S)-1-(6-{[3-chloro-5-(1,3-oxazol-2-yl)phenyl]amino}hexyl)-2-(hydroxymethyl)piperidine-3,4,5-triol] the IC50 was 112 nM. COc1cc(NCCCCCCN2C[C@H](O)[C@@H](O)[C@H](O)[C@H]2CO)cc(-c2ncccn2)c1 [Compound 1217, (2R,3R,4R,5S)-2-(hydroxymethyl)-1-(6-{[3-methoxy-5-(pyrimidin-2-yl)phenyl]amino}hexyl)piperidine-3,4,5-triol] gave an IC50 of 128 nM. Molecule Cc1cc(NCc2ccc(CN3C[C@H](O)[C@@H](O)[C@H](O)[C@H]3CO)cc2)cc(-n2ccnn2)c1 [Compound 1323, (2R,3R,4R,5S)-2-(hydroxymethyl)-1-{[4-({[3-methyl-5-(1H-1,2,3-triazol-1-yl)phenyl]amino}methyl)phenyl]methyl}piperidine-3,4,5-triol] has an IC50 of 11 nM. In the case of CN(C)Cc1ccc(NCCCCCCN2C[C@H](O)[C@@H](O)[C@H](O)[C@H]2CO)c(F)c1 [Compound 1236, (2R,3R,4R,5S)-1-[6-({4-[(dimethylamino)methyl]-2-fluorophenyl}amino)hexyl]-2-(hydroxymethyl)piperidine-3,4,5-triol], the IC50 is reported as 296 nM. With [N-]=[N+]=Nc1ccc(NCCNC(=O)NCCN2C[C@H](O)[C@@H](O)[C@H](O)[C@H]2CO)c([N+](=O)[O-])c1 [Compound 1276, 1-{2-[(4-azido-2-nitrophenyl)amino]ethyl}-3-{2-[(2R,3R,4R,5S)-3,4,5-trihydroxy-2-(hydroxymethyl)piperidin-1-yl]ethyl}urea] the IC50 was 2440 nM. In the case of [N-]=[N+]=Nc1ccc(NCCCCCCN2C[C@H](O)[C@@H](O)[C@H](O)[C@H]2CO)c(C(N)=O)c1 [Compound 1296, 5-azido-2-({6-[(2R,3R,4R,5S)-3,4,5-trihydroxy-2-(hydroxymethyl)piperidin-1-yl]hexyl}amino)benzamide], the IC50 is reported as 142 nM. For Cc1cc(-c2ncccn2)ccc1NCCCCCCN1C[C@H](O)[C@@H](O)[C@H](O)[C@H]1CO [Compound 1233, (2R,3R,4R,5S)-2-(hydroxymethyl)-1-(6-{[2-methyl-4-(pyrimidin-2-yl)phenyl]amino}hexyl)piperidine-3,4,5-triol], the IC50 was 123 nM. COc1ccc(C#CCCCCCN2C[C@H](O)[C@@H](O)[C@H](O)[C@H]2CO)cc1 [Compound 1338, (2R,3R,4R,5S)-2-(hydroxymethyl)-1-[7-(4-methoxyphenyl)hept-6-yn-1-yl]piperidine-3,4,5-triol] gave an IC50 of 999 nM. For Cc1cc(NCc2cnc(CN3C[C@H](O)[C@@H](O)[C@H](O)[C@H]3CO)cn2)cc(-c2ccc[nH]2)c1 [Compound 1330, (2R,3R,4R,5S)-2-(hydroxymethyl)-1-{[5-({[3-methyl-5-(1H-pyrrol-2-yl)phenyl]amino}methyl)pyrazin-2-yl]methyl}piperidine-3,4,5-triol], the IC50 was 1420 nM. [N-]=[N+]=Nc1ccc(NCCc2ccccc2CCN2C[C@H](O)[C@@H](O)[C@H](O)[C@H]2CO)c([N+](=O)[O-])c1 [Compound 1249] was tested, and the IC50 was 2450 nM. For NC(=O)CCN(CCNc1ccc(-c2ncccn2)cc1[N+](=O)[O-])CCN1C[C@H](O)[C@@H](O)[C@H](O)[C@H]1CO [Compound 1226, 3-[(2-{[2-nitro-4-(pyrimidin-2-yl)phenyl]amino}ethyl)({2-[(2R,3R,4R,5S)-3,4,5-trihydroxy-2-(hydroxymethyl)piperidin-1-yl]ethyl})amino]propanamide], the IC50 was 9530 nM.
